Measured values as given in US7763615B2, “Ecteinascidin analogs for use as antitumour agents” (priority 2001, dated 2010).
Where two headings read alike, the source gives them in different places.

Columns and labels:
Format in all cases: cell-based
A549 = test: cells; conditions: Homo sapiens, A549, 48 h; for GI50: read-out: GI50; for IC (TGI): read-out: TGI
Description: (§1) The finality of these assays is to interrupt the growth of a “in vitro” tumor cell culture by means of a continued exhibition of the cells to the sample to be testing.
(§2) A colorimetric type of assay, using sulphorhodamine B (SRB) reaction has been adapted for a quantitative measurement of cell growth and viability [following the technique described by Philip Skehan, et al. (1990), New colorimetric cytotoxicity assay for anticancer drug screening, J. Natl. Cancer Inst., 82:1107-1112]
(§3) This form of the assay employs 96 well cell culture microplates of 9 mm diameter (Faircloth, 1988; Mosmann, 1983). Most of the cell lines are obtained from American Type Culture Collection (ATCC) derived from different human cancer types.
(§4) Cells are maintained in RPMI 1640 10% FBS, supplemented with 0.1 g/l penicillin and 0.1 g/l streptomycin sulphate and then incubated at 37° C., 5% CO2 and 98% humidity. For the experiments, cells were harvested from subconfluent cultures using trypsin and resuspended in fresh medium before plating.
(§5) Cells are seeded in 96 well microtiter plates, at 5×10^3 cells per well in aliquots of 195 μl medium, and they are allowed to attach to the plate surface by growing in drug free medium for 18 hours. Afterward, samples are added in aliquots of 5 μl in a ranging from 10 to 10^−8 μg/ml, dissolved in DMSO/EtOH/PBS (0.5:0.5:99). After 48 hours exposure, the antitumor effect are measured by the SRB methodology: cells are fixed by adding 50 μl of cold 50% (wt/vol) trichloroacetic acid (TCA) and incubating for 60 minutes at 4° C. Plates are washed with deionized water and dried. One hundred μl of SRB solution (0.4% wt/vol in 1% acetic acid) is added to each microtiter well and incubated for 10 minutes at room temperature. Unbound SRB is removed by washing with 1% acetic acid. Plates are air dried and bound stain is solubilized with Tris buffer. Optical densities are read on a automated spectrophotometric plate reader at a single wavelength of 490 nm.
(§6) The values for mean+/− SD of data from triplicate wells are calculated. Some parameters for cellular responses can be calculated: GI=growth inhibition, TGI=total growth inhibition (cytostatic effect) and LC=cell killing (cytotoxic effect).

HT29 = test: cells; conditions: Homo sapiens, HT-29, 48 h
Description: as §1, §2, §3, §4, §5, §6

H-MEC-1 = test: Inhibition of cells growth by colorimetric assay (SRB), H-MEC-1; conditions: Homo sapiens, H-MEC-1, 48 hours exposure, SRB; for GI50 / IC (TGI): HMEC-1, 48 h; for CC50: HMEC-1, read-out: LC50 (the source's name)
Description: as §1, §2, §3, §4, §5, §6

[1] = A549, 48 hours exposure, SRB, read-out: LC50 (the source's name)
[2] = HT29, 48 hours exposure, SRB, read-out: LC50 (the source's name)

SMILES | GI50 (A549; A549, 48 hours exposure, SRB) [µM] | CC50 (A549; [1]) [µM] | IC (TGI) (A549; A549, 48 hours exposure, SRB) [µM] | GI50 (HT29; HT29, 48 hours exposure, SRB) [µM] | IC (TGI) (HT29; HT29, 48 hours exposure, SRB) [µM] | CC50 (HT29; [2]) [µM] | CC50 (A549; read-out: LC50, A549, 48 hours exposure, SRB) [µM] | CC50 (HT29; read-out: LC50, HT29, 48 hours exposure, SRB) [µM] | GI50 (H-MEC-1) [µM] | IC (TGI) (H-MEC-1) [µM] | CC50 (H-MEC-1) [µM]
CCCC(=O)Oc1c(OC)c(C)cc2c1[C@@H]1C3[C@@H]4SC[C@]5(NCCc6c5[nH]c5ccccc65)C(=O)COC[C@@H](c5c6c(c(C)c(OC(C)=O)c54)OCO6)N3[C@@H](C#N)[C@H](C2)N1C (stereo partly drawn) [Compound 20] | 0.33 | 6.77 | 1.2 | 0.596 | 12 | 12 |  |  |  |  | 
COc1c(C)cc2c(c1OC(=O)OC(C)(C)C)[C@@H]1C3[C@@H]4SC[C@]5(NCCc6c5[nH]c5ccccc65)C(=O)COC[C@@H](c5c6c(c(C)c(OC(C)=O)c54)OCO6)N3[C@@H](C#N)[C@H](C2)N1C (stereo partly drawn) [Compound 21] | 0.758 | 11.6 | 6.99 | 1.18 | 11.6 | 11.6 |  |  |  |  | 
C=COC(=O)Oc1c(OC)c(C)cc2c1[C@@H]1C3[C@@H]4SC[C@]5(NCCc6c5[nH]c5ccccc65)C(=O)COC[C@@H](c5c6c(c(C)c(OC(C)=O)c54)OCO6)N3[C@@H](C#N)[C@H](C2)N1C (stereo partly drawn) [Compound 22] | 0.0393 | 12 | 0.12 | 0.12 | 5.7 | 12 |  |  |  |  | 
C=COC(=O)Oc1c(OC)c(C)cc2c1[C@@H]1C3[C@@H]4SC[C@]5(C(=O)COC[C@@H](c6c7c(c(C)c(OC(C)=O)c64)OCO7)N3[C@@H](C#N)[C@H](C2)N1C)c1[nH]c2ccccc2c1CCN5C(=O)OC=C (stereo partly drawn) [Compound 23] | 0.118 |  | 1.26 | 0.247 | 11.1 |  | 11.1 | 11.1 |  |  | 
C=CCOc1c(OC)c(C)cc2c1[C@@H]1C3[C@@H]4SC[C@]5(NCCc6c5[nH]c5ccccc65)C(=O)COC[C@@H](c5c6c(c(C)c(OC(C)=O)c54)OCO6)N3[C@@H](C#N)[C@H](C2)N1C (stereo partly drawn) [Compound 24] | 12.4 | 12.4 | 12.4 | 12.4 | 12.4 | 12.4 |  |  |  |  | 
C=CCOc1c(OC)c(C)cc2c1[C@@H]1C3[C@@H]4SC[C@]5(C(=O)COC[C@@H](c6c7c(c(C)c(OC(C)=O)c64)OCO7)N3[C@@H](C#N)[C@H](C2)N1C)c1[nH]c2ccccc2c1CCN5CC=C (stereo partly drawn) [Compound 25] | 11.8 | 11.8 | 11.8 | 11.8 | 11.8 | 11.8 |  |  |  |  | 
C=CCOc1c(OC)c(C)cc2c1[C@@H]1C3[C@@H]4SC[C@]5(C(=O)COC[C@@H](c6c7c(c(C)c(OC(C)=O)c64)OCO7)N3[C@@H](O)[C@H](C2)N1C)c1[nH]c2ccccc2c1CCN5CC=C (stereo partly drawn) [Compound 49] | 2.64 | 9.37 | 4.97 | 4.5 | 12.6 | 12.6 |  |  | 1.99 | 4.12 | 8.54
CCCC(=O)Oc1c(C)c2c(c3c1[C@H]1SC[C@]4(NCCc5c4[nH]c4ccccc54)C(=O)COC[C@@H]3N3C1[C@H]1c4c(cc(C)c(OC)c4O)C[C@@H]([C@@H]3C#N)N1C)OCO2 (stereo partly drawn) [Compound 52] | 0.047 | 943 | 0.126 | 0.0793 | 12.6 | 12.6 |  |  | 0.347 | 0.00695 | 0.0126
COc1c(C)cc2c(c1O)[C@@H]1C3[C@@H]4SC[C@]5(NCCc6c5[nH]c5ccccc65)C(=O)COC[C@@H](c5c6c(c(C)c(OC(=O)CCCl)c54)OCO6)N3[C@@H](C#N)[C@H](C2)N1C (stereo partly drawn) [Compound 53] | 0.261 | 12.2 | 0.784 | 0.309 | 1.23 | 12.3 |  |  | 0.132 | 12.3 | 12.3
COc1c(C)cc2c(c1O)[C@@H]1C3[C@@H]4SC[C@]5(NCCc6c5[nH]c5ccccc65)C(=O)COC[C@@H](c5c6c(c(C)c(OC(=O)C(F)(F)F)c54)OCO6)N3[C@@H](C#N)[C@H](C2)N1C (stereo partly drawn) [Compound 56] | 0.0093 | 3.79 | 0.236 | 0.0474 | 12.2 | 12.2 |  |  | 0.00417 | 0.00965 | 0.378
COc1c(C)cc2c(c1OC(=O)OC(C)(C)C)[C@@H]1C3[C@@H]4SC[C@]5(NCCc6c5[nH]c5ccccc65)C(=O)COC[C@@H](c5c6c(c(C)c(OC(=O)OC(C)(C)C)c54)OCO6)N3[C@@H](C#N)[C@H](C2)N1C (stereo partly drawn) [Compound 58] | 0.0891 | 10.8 | 1.34 | 0.23 | 10.8 | 10.8 |  |  | 0.0102 | 10.8 | 10.8
C=COC(=O)Oc1c(C)c2c(c3c1[C@H]1SC[C@]4(NCCc5c4[nH]c4ccccc54)C(=O)COC[C@@H]3N3C1[C@H]1c4c(cc(C)c(OC)c4O)C[C@@H]([C@@H]3C#N)N1C)OCO2 (stereo partly drawn) [Compound 59] | 0.00266 | 4.98 | 2.26 | 0.0038 | 0.0184 | 12.6 |  |  | 0.004 | 0.0126 | 12.6
CCCCCCCC(=O)Oc1c(C)c2c(c3c1[C@H]1SC[C@]4(NCCc5c4[nH]c4ccccc54)C(=O)COC[C@@H]3N3C1[C@H]1c4c(cc(C)c(OC)c4O)C[C@@H]([C@@H]3C#N)N1C)OCO2 (stereo partly drawn) [Compound 61] | 11.8 | 11.8 | 11.8 | 11.8 | 11.8 | 11.8 |  |  | 0.394 | 0.805 | 3.4
CCCC(=O)Oc1c(C)c2c(c3c1[C@H]1SC[C@]4(NCCc5c4[nH]c4ccccc54)C(=O)COC[C@@H]3N3C1[C@H]1c4c(cc(C)c(OC)c4O)C[C@@H]([C@@H]3O)N1C)OCO2 (stereo partly drawn) [Compound 63] | 0.00312 | 3.03 | 0.00953 | 0.00388 | 0.0128 | 12.8 |  |  | 0.00272 | 0.0128 | 12.8
C=CCOC(=O)Oc1c(C)c2c(c3c1[C@H]1SC[C@]4(NCCc5c4[nH]c4ccccc54)C(=O)COC[C@@H]3N3C1[C@H]1c4c(cc(C)c(OC)c4O)C[C@@H]([C@@H]3O)N1C)OCO2 (stereo partly drawn) [Compound 64] | 0.00164 | 0.11 | 0.00683 | 0.00191 | 0.0125 | 12.5 |  |  | 0.00031 | 0.0125 | 12.5
